Measurements from the NIST ThermoML archive (doi:10.1021/acs.jced.9b00536).

Experiment: refractive index (Na D-line) (dimensionless); wn = mass fraction of the nth substance listed
Details: 100 kPa, Liquid, Standard Abbe refractometry

[Na+].[OH-] [sodium hydroxide] + O
refractive index
Details	283.15 K	288.15 K	293.15 K	298.15 K	303.15 K	308.15 K
w1 = 0.2	1.3856	1.3847	1.3838	1.3829	1.382	1.3811
w1 = 0.21	1.3875	1.3866	1.3858	1.3849	1.384	1.3832
w1 = 0.22	1.3904	1.3895	1.3886	1.3878	1.3869	1.386
w1 = 0.23	1.3922	1.3912	1.3903	1.3893	1.3882	1.3874
w1 = 0.24	1.3941	1.3932	1.3923	1.3914	1.3905	1.3896
w1 = 0.25	1.3969	1.3961	1.3952	1.3943	1.3934	1.3925
w1 = 0.26	1.3991	1.3982	1.3974	1.3965	1.3956	1.3947
w1 = 0.27	1.4009	1.4	1.3991	1.3982	1.3973	1.3964
w1 = 0.28	1.4028	1.4019	1.4011	1.4002	1.3993	1.3983
w1 = 0.29	1.4053	1.4044	1.4035	1.4026	1.4017	1.4008
w1 = 0.3	1.4066	1.4056	1.4048	1.4038	1.4029	1.402
w1 = 0.31	1.4087	1.4077	1.4068	1.4059	1.405	1.4041
w1 = 0.32	1.4099	1.4091	1.4081	1.4073	1.4063	1.4055
w1 = 0.33	1.4115	1.4107	1.4097	1.4088	1.4079	1.407
w1 = 0.34	1.4141	1.4132	1.4123	1.4114	1.4105	1.4096
w1 = 0.35	1.416	1.4151	1.4142	1.4133	1.4123	–
w1 = 0.36	1.4175	1.4167	1.4158	1.4148	1.4139	–
w1 = 0.37	1.419	1.4181	1.4172	1.4163	1.4154	–
w1 = 0.38	1.4209	1.42	1.4191	1.4182	1.4173	–
w1 = 0.39	1.4226	1.4217	1.4208	1.4199	1.4189	–
w1 = 0.4	1.4241	1.4232	1.4223	1.4214	1.4205	–
w1 = 0.41	1.4252	1.4243	1.4234	1.4225	1.4215	–
w1 = 0.42	1.4269	1.426	1.425	1.4241	1.4231	–
w1 = 0.43	1.4281	1.4272	1.4263	1.4254	1.4245	–
w1 = 0.44	1.4293	1.4284	1.4274	1.4265	1.4255	–
w1 = 0.45	1.4303	1.4295	1.4286	1.4276	1.4267	–
w1 = 0.46	1.4321	1.4312	1.4303	1.4293	1.4284	–
w1 = 0.47	1.4332	1.4323	1.4314	1.4304	1.4294	–
w1 = 0.48	1.4347	1.4338	1.4329	1.432	1.4311	–
w1 = 0.49	1.4356	1.4347	1.4338	1.4328	1.4318	–
w1 = 0.5	1.4365	1.4355	1.4346	1.4337	1.4328	–
